Here are results for 16 compounds from BindingDB's records for PubMed 8102785 (University of Pennsylvania, 1993).

Broadly, the Ki is the dissociation constant of the complex between target and ligand, obtained from inhibition or displacement.

Where a SMILES comes first, the peptide text is derived from it. Bridges are numbered along the chain shown (N, C = ends). [ ]: non-standard residue; d: D form. The star is where a group is joined. NH(1-naphthylmethyl) = c1ccc2c(CN*)cccc2c1; Phe(4-Cl) = N[C@@H](Cc1ccc(Cl)cc1)C(=O)O; 2Nal = N[C@@H](Cc1ccc2ccccc2c1)C(=O)O; 1Nal = N[CH](Cc1cccc2ccccc12)C(=O)O; dNMeF = CN[C@H](Cc1ccccc1)C(=O)O; Thr(ol) = C[CH](O)[CH](N)CO; dNMeA = CN[C@H](C)C(=O)O; Abu = CC[C@H](N)C(=O)O; Aoc = NCCCCCCCC(=O)O; Ahp = NCCCCCCC(=O)O; Ahx = NCCCCCC(=O)O; Bn = c1ccc(C*)cc1

For the assay, the target named is Somatostatin receptor type 4 (Rattus norvegicus, UniProt P30937).
Sequence of Somatostatin receptor type 4 (P30937 whole entry): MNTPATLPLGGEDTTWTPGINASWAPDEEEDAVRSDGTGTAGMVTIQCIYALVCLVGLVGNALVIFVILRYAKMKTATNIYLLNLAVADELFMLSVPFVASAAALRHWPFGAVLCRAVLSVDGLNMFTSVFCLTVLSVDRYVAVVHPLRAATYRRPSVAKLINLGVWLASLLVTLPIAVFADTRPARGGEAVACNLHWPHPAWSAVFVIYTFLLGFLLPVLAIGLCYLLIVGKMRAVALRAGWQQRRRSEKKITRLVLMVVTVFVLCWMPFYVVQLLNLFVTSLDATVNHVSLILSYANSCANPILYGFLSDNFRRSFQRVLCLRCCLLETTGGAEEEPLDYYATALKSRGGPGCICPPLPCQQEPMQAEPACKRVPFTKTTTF
On to `CC[C@@H]1NC(=O)[C@H](CCCCN)NC(=O)[C@@H](Cc2c[nH]c3ccccc23)NC(=O)[C@H](Cc2ccc(O)cc2)NC(=O)[C@@H](NC(=O)[C@H](N)Cc2ccccc2)CSSC[C@@H](C(=O)N[C@@H](Cc2ccc3ccccc3c2)C(N)=O)NC1=O` [D-Phe-Cys-Tyr-D-Trp-Lys-Abu-Cys-Nal-NH] (H-[dF]CY[dW]K[Abu]C[2Nal]-NH2; disulfide 2-7), for which the Ki turned out to be 6 nM. In other words, the single-digit nanomolar range.
Take `CC[C@@H]1NC(=O)[C@H](CCCCN)NC(=O)[C@@H](Cc2c[nH]c3ccccc23)NC(=O)[C@H](Cc2ccc(O)cc2)NC(=O)[C@@H](NC(=O)[C@H](N)Cc2ccccc2)CSSC[C@@H](C(=O)N[C@H](C(N)=O)[C@@H](C)O)NC1=O` [D-Phe-L-Cys(1)-L-Tyr-D-Trp-L-Lys-L-Abu-L-Cys(1)-L-Thr-NH2]: affinity was put at a Ki of 0.18 nM.
`CC(C)[C@H](NC(=O)[C@H](CCCCN)NC(=O)[C@@H](Cc1c[nH]c2ccccc12)NC(=O)[C@H](Cc1ccc(O)cc1)NC(=O)[C@H](Cc1ccccc1)NC(=O)[C@H](N)Cc1ccccc1)C(=O)N[C@@H](Cc1ccccc1)C(=O)N[C@H](Cc1ccccc1)C(N)=O` [D-Phe-Phe-Tyr-D-Trp-Lys-Val-Phe-D-Phe-NH2] (H-[dF]FY[dW]KVF[dF]-NH2): the Ki stood at 3.3 nM.
In turn, `CC(C)C1NC(=O)C(CCCCN)NC(=O)C(Cc2c[nH]c3ccccc23)NC(=O)C(Cc2ccc(O)cc2)NC(=O)C(NC(=O)C(N)Cc2cccc3ccccc23)CSSCC(C(=O)NC(CO)C(C)O)NC1=O` (stereo unspecified) [DC23-60] (H-[1Nal]CYWKVC[Thr(ol)]; disulfide 2-7; configuration not given here) came in with a Ki of 1.5 nM.
Compound `C[C@@H](O)[C@@H]1NC(=O)[C@H](CCCCN)NC(=O)[C@@H](Cc2c[nH]c3ccccc23)NC(=O)[C@H](Cc2c[nH]c3ccccc23)NC(=O)[C@H](Cc2ccccc2)NC(=O)CCCCCCNC(=O)[C@H](Cc2ccccc2)NC1=O` [L-362855] (cyclo([Ahp]FW[dW]KTF)) had a Ki of 0.005 nM.
The compound `C[C@@H](O)[C@@H]1NC(=O)[C@H](CCCCN)NC(=O)[C@@H](Cc2c[nH]c3ccccc23)NC(=O)[C@H](Cc2ccccc2)NC(=O)[C@H](Cc2ccc(Cl)cc2)NC(=O)CCCCCCNC(=O)[C@H](Cc2ccccc2)NC1=O` [L-362862] (cyclo([Ahp][Phe(4-Cl)]F[dW]KTF)) showed a Ki of 0.47 nM.
The result for `CC(C)[C@H](NC(=O)[C@H](CCCCN)NC(=O)[C@@H](Cc1c[nH]c2ccccc12)NC(=O)[C@H](Cc1ccc(O)cc1)NC(=O)[C@H](C)NC(=O)[C@H](N)Cc1ccccc1)C(=O)N[C@@H](C)C(=O)N[C@@H](Cc1ccc2ccccc2c1)C(N)=O` [L-Alaninamide,D-phenylalanyl-L-alanyl-L-tyrosyl-D-tryptophyl-L-lysyl-L-valyl-L-alanyl-3-(2-naphthalenyl)-(9CI)] (H-[dF]AY[dW]KVA[2Nal]-NH2) reads 29 nM; that for `C[C@H](O)[C@H]1NC(=O)[C@H](CCCCN)NC(=O)[C@@H](Cc2c[nH]c3ccccc23)NC(=O)[C@@H](Cc2ccccc2)NC(=O)[C@@H](C)N(C)C(=O)[C@@H](Cc2ccccc2)N(C)C1=O` [N-Methylcyclo(D-Ala-D-Phe-D-Trp-L-Lys-D-Thr-N-methyl-D-Phe-)] (cyclo(K[dT][dNMeF][dNMeA][dF][dW])), 405 nM; that for `NCCCCC1NC(=O)C(Cc2c[nH]c3ccccc23)NC(=O)C(Cc2ccc(O)cc2)NC(=O)C(NC(=O)C(N)Cc2ccccc2)CSSCC(C(=O)NCc2cccc3ccccc23)NC(=O)C(CO)NC1=O` (stereo unspecified) [NC4-28B] (H-FCYWKSC-{NH(1-naphthylmethyl)}; disulfide 2-7; configuration not given here), 1 nM.
In the case of `CC(O)[C@@H]1NC(=O)[C@@H](CCCCN)NC(=O)[C@H](Cc2c[nH]c3ccccc23)NC(=O)[C@@H](Cc2ccccc2)NC(=O)[C@H](Cc2ccccc2)NC(=O)[C@@H](CC(N)=O)NC(=O)[C@H](CCCCN)NC(=O)[C@@H](NC(=O)CNC(=O)[C@H](C)N)CSSC[C@H](C(=O)O)NC(=O)[C@@H](CO)NC(=O)[C@H]([C@@H](C)O)NC(=O)[C@@H](Cc2ccccc2)NC1=O` (stereo partly drawn) [SRIF-D-Trp8], the affinity, expressed as Ki, was 0.002 nM.
`NCCCC[C@@H]1NC(=O)[C@@H](Cc2c[nH]c3ccccc23)NC(=O)[C@H](Cc2ccccc2)NC(=O)CCCCCCNC(=O)[C@H](COCc2ccccc2)NC1=O` [c[Aha-Phe-D-Trp-Lys-Ser(Bzl)]] (cyclo([Ahp]F[dW]KS(Bn))) returned a Ki of 188 nM. Against the preceding compound, the Ki is about 94000-fold higher.
Compound `C[C@@H](Oc1ccccc1)[C@@H]1NC(=O)[C@H](CCCCN)NC(=O)[C@@H](Cc2c[nH]c3ccccc23)NC(=O)[C@H](Cc2ccccc2)NCCCCCCNC1=O` [c[Aha-Phe-D-Trp-Lys-Thr(Bzl)]] displayed a Ki of 51 nM.
As for `C[C@@H](O)[C@@H]1NC(=O)[C@H](CCCCN)NC(=O)[C@@H](Cc2c[nH]c3ccccc23)NC(=O)[C@H](Cc2ccccc2)NC(=O)CCCCCCNC1=O` [c[Aha-Phe-D-Trp-Lys-Thr]] (cyclo([Ahp]F[dW]KT)), the Ki was 1000 nM.
The compound `C[C@@H](OCc1ccccc1)[C@@H]1NC(=O)[C@H](CCCCN)NC(=O)[C@@H](Cc2c[nH]c3ccccc23)NC(=O)[C@H](Cc2ccccc2)NC(=O)CCCCCNC1=O` [c[Ahx-Phe-D-Trp-Lys-Thr(Bzl)]] (cyclo([Ahx]F[dW]KT(Bn))) registered a Ki of 34 nM. Against the preceding compound, the Ki is about 29-fold lower.
The result for `C[C@@H](OCc1ccccc1)[C@@H]1NC(=O)[C@H](CCCCN)NC(=O)[C@@H](Cc2c[nH]c3ccccc23)NC(=O)[C@H](Cc2ccccc2)NC(=O)CCCCCCCNC1=O` [c[Aoc-Phe-D-Trp-Lys-Thr(Bzl)]] (cyclo([Aoc]F[dW]KT(Bn))) reads 50 nM; that for `CSCC[C@H](NC(=O)[C@H](C)NC(=O)[C@@H]1CCCN1C(=O)[C@H](CC(N)=O)NC(=O)[C@H](CO)NC(=O)[C@H](CC(N)=O)NC(=O)[C@H](C)NC(=O)[C@@H](N)CO)C(=O)N[C@@H](C)C(=O)N1CCC[C@H]1C(=O)N[C@@H](CCCNC(=N)N)C(=O)N[C@@H](CCC(=O)O)C(=O)N[C@@H](CCCNC(=N)N)C(=O)N[C@@H](CCCCN)C(=O)N[C@@H](C)C(=O)NCC(=O)N[C@H]1CSSC[C@@H](C(=O)O)NC(=O)[C@H](CO)NC(=O)[C@H]([C@@H](C)O)NC(=O)[C@H](Cc2ccccc2)NC(=O)[C@H]([C@@H](C)O)NC(=O)[C@H](CCCCN)NC(=O)[C@H](Cc2c[nH]c3ccccc23)NC(=O)[C@H](Cc2ccccc2)NC(=O)[C@H](Cc2ccccc2)NC(=O)[C@H](CC(N)=O)NC(=O)[C@H](CCCCN)NC1=O` [somatostatin-28], 0.23 nM.
